Test results reported in patent publication US5025016A, “Pyrimidine-thioalkyl pyridine derivatives, medicaments containing these compounds, and method of treatment” (Ludwig Heumann & Co. GmbH, priority 1983, dated 1991).
Where a name gives a salt, the structure may show the parent alone.

Each compound was assayed on tracheal secretion of phenol red (assay: Secretion-stimulating activity: tracheal secretion of phenol red after oral administration to female mice). Details: Mus musculus, calculated from the regression curves.
Format: in vivo
Experimental: Bronchosecretolytic compounds promote the tracheal secretion of phenol red (Chronic Bronchitis Research Group, Chinese Medical Journal 3: 259, 1977). The increase in the tracheal secretion of phenol red is a measure of bronchosecretolytic activity. This activity of the test substances was investigated after oral administration to female mice. The ED50 -values shown in Table 1 were calculated from the regression curves.
Compound `Cc1cc(O)nc(SCc2cccnc2)n1` [Example 5, 4-hydroxy-6-methyl-2-(pyridyl-3-methylthio)-pyrimidine] has an ED50 of 15 mg/kg.
`Nc1cc(O)nc(SCc2cccnc2)n1` [Example 3, 4-amino-6-hydroxy-2-(pyridyl-3-methylthio)-pyrimidine] was tested, and the ED50 was 2 mg/kg.
`C[n+]1cccc(CSc2ncccn2)c1` [Example 12, 2-(3-methylthio-1-methylpyridinium)-pyrimidine iodide] gave an ED50 of 1 mg/kg.
`Nc1cc(O)nc(SCc2ccc(Cl)nc2)n1` [Example 6, 4-amino-6-hydroxy-2-(pyridyl-6-chloro-3-methylthio)-pyrimidine] was tested, and the ED50 was 2 mg/kg.
`CC(Sc1ncccn1)c1cccnc1` (stereo not shown) [Example 7, 2-(pyridyl-3-(2-ethylthio)-pyrimidine oxalate] showed an ED50 of 15 mg/kg.
Work on `[O-][S+](Cc1ccncc1)c1ncccn1` (stereo not shown) [Example 10, 2-(pyridyl-4-methylsulfinyl)-pyrimidine hydrochloride] yielded an ED50 of 100 mg/kg.
`Cc1ccc(C(C)Sc2ncccn2)cn1` (stereo not shown) [Example 8] was tested, and the ED50 was > 100 mg/kg.
`[O-][S+](Cc1cccnc1)c1ncccn1` (stereo not shown) [Example 9, 2-(pyridyl-3-methylsulfinyl)-pyrimidine hydrochloride] gave an ED50 of 2 mg/kg.
`Cc1ccnc([S+]([O-])Cc2cccnc2)n1` (stereo not shown) [Example 11, 4-methyl-2-(pyridyl-3-methylsulfinyl)-pyrimidine oxalate] gave an ED50 of 10 mg/kg.
Compound `Oc1ccnc(SCc2cccnc2)n1` [Example 2, 4-hydroxy-2-(pyridyl-3-methylthio)-pyrimidine] has an ED50 of 100 mg/kg.
Work on `CC[n+]1cccc(CSc2ncccn2)c1` [Example 13, 2-(3-methylthio-1-ethylpyridinium)-pyrimidine iodide] yielded an ED50 of 70 mg/kg.
In the case of `Nc1cc(N)nc(SCc2cccnc2)n1` [Example 4, 4,6-diamino-2-(pyridyl-3-methylthio)-pyrimidine succinate], the ED50 is reported as > 100 mg/kg.
With `Nc1c(Br)cc(Br)cc1CN[C@H]1CC[C@H](O)CC1` [Ambroxol, trans-4-(2-amino-3,5-dibromobenzyl)-aminocyclohexanol, reference compound] the ED50 was 250 mg/kg.
For `Nc1ccnc(SCc2cccnc2)n1` [Example 1, 4-amino-2-(pyridyl-3-methylthio)-pyrimidine], the ED50 was 5 mg/kg.

What follows are compounds tested on carrageenin-induced inflammation (oedema formation) (assay: Antiphlogistic activity: carrageenin-oedema test, right-hand rear paw). Details: 100 mg/kg i.g., 30 minutes before injection of the carrageenin; male rats.
Format: in vivo
Experimental: The antiphlogistic properties of the compounds according to the invention were determined by the carrageenin-oedema test in male rats (average weight 130-160 g, SIV 50, Messrs Ivanovas, Kisslegg). The inhibition of the carrageenin-induced inflammation (oedema formation) was measured on the right-hand rear paw. The test substances were administered intragastrally by esophagus probe 30 minutes before injection of the carrageenin. The results are shown in Table II (Higgs et.al., European Journal of Pharmacology 66, 81-86 (1980)).
For `Oc1ccnc(SCc2cccnc2)n1` [Example 2, 4-hydroxy-2-(pyridyl-3-methylthio)-pyrimidine], the “Inhibition in % (carrageenin-induced oedema formation)” value was 45%.
In the case of `Nc1cc(N)nc(SCc2cccnc2)n1` [Example 4, 4,6-diamino-2-(pyridyl-3-methylthio)-pyrimidine succinate], the “Inhibition in % (carrageenin-induced oedema formation)” value is reported as 30%.
